Source: patent US11000501B2, “Composition for preventing or treating neurological and mental disorders, containing syringaresinol” (SEOUL NATIONAL UNIVERSITY R&DB FOUNDATION, priority 2016, dated 2021)

Tests used:
Assay type in all cases: cell-based, mouse
CA1 neurons [1] = assay: Whole-cell current clamp recording of membrane potential
Description: Next, whole-cell current clamp recordings were used to check the effect of SYR on the membrane potential of CA1 neurons.

[2] = system: Schaffer collateral (SC)-CA1 synapse of the hippocampus; assay: fEPSP recording in hippocampal SC-CA1 synapse (hippocampal slices); settings: for first and second fEPSPs: paired pulse interval 100 ms
Description: A hippocampus slice (400 μm thick) was prepared in a cold dissection buffer using a vibrating machine (Vibratome, Leica, Germany) and then a CA3 region of each slice was removed surgically immediately after the slice formation. In this connection, the cold dissection buffer contained sucrose 230 mM; NaHCO3 25 mM; KCl 2.5 mM; NaH2PO4 1.25 mM; D-glucose 10 mM; Na-ascorbic acid salt 1.3 mM; MgCl2 3 mM; CaCl2 0.5 mM, 95% O2/5% CO2 and had pH 7.4. The slice was recovered in a normal ACSF (artificial cerebrospinal fluid) for 1 hour and then maintained at room temperature (23 to 25° C.) until recording. […] All electrophysiological experiments were performed in a recording chamber while the samples were immersed in the solution in a manner described previously (Song et al., 2017). Signals were amplified using a MultiClamp 700B amplifier (Molecular Devices, CA, USA) at a cut-off frequency of 2.8 kHz and were measured with a Digidata 1440A interface (Molecular Devices) at a 10 kHz sampling frequency. Data were collected using pClamp 10.2 (Molecular Devices) software. The collected data were analyzed with a program created in the lab using Igor Pro (WaveMetrics, OR, USA). To record the field excitatory post-synaptic potential (fEPSP) in the hippocampal SC-CA1 synapse, hippocampal slices were placed in the recording chamber and perfused with ACSF while oxygen was fed continuously to the ACSF. The ACSF was maintained at a temperature of 29 to 30° C. using a heater for perfusion (SH-27B, Warner Instruments, CT, USA). A synapse response was induced by stimulation with a glass pipette (0.3 to 0.5 Mohm) every 20 seconds (0.05 Hz). The synapse response was recorded using a glass pipette (3 to 4 Mohm) filled with ACSF. The intensity of the stimulus was adjusted to produce a synapse response of about ⅓ of the maximum value thereof. The slices with unstable (10%) baseline records were excluded. To investigate the effect of syringaresinol (SYR) on the synaptic transmission, the field excitatory post-synaptic potential (fEPSP) of the Schaffer collateral (SC)-CA1 synapse of the hippocampus of adult mice (4 to 6 weeks of age) was measured. After confirming the stable baseline, different concentrations of SYR were applied thereto using the perfusion solution.

[3] = system: SC-CA1 synapse synaptic vesicle pool; assay: Readily releasable pool (RRP) size by cumulative amplitude analysis, 20 Hz train; settings: 100 μM; 80 stimuli at 20 Hz
Description: Previous studies have shown that the secretion probability is regulated by the size of the readily releasable pool (RRP) of hippocampal neurons. Therefore, RRP was measured before and after treatment with SYR (100 μM). A high-frequency train (20 Hz) composed of more than 60 stimuli was prepared. 80 stimuli at 20 Hz was applied to completely remove RRP from the SC-CA1 synapse. RRP size was measured by cumulative amplitude analysis (Stevens and Williams, 2007; Wesseling and Lo, 2002). In the presence of AP-5 and picrotoxin, SYR inhibited AMPAR-EPSC (FIG. 5A and FIG. 5B). […] An extent by which RRP size is reduced was very close to an extent by which synapse is inhibited (FIG. 5B and FIG. 5F). […] This means that a decrease in RRP size may lead to the SYR-induced synapse decrease.

hippocampal CA1 region = assay: Picrotoxin-induced epilepsy activity in intact hippocampal slices; settings: picrotoxin 50 μM
Description: Selective inhibition of excitatory synaptic transmission rather than inhibitory synapse transmission means that SYR may change the balance between synapse excitation and inhibition in neurons. We checked whether this synapse regulation might inhibit epilepsy pathogenic activity caused by excessive excitement of the neural network. To model an epilepsy pathogenic neuron network in experimental conditions (in vitro), the hippocampal slice was prepared while the CA3 region was left. During recording, ACSF containing picrotoxin (50 μM) was perfused in intact hippocampal slices. […] Continuous picrotoxin perfusion (>20 min) discharged an epilepsy pathogenic excitation wave. This wave was characterized by a three to seven population spikes (PS) waveform of a decreasing amplitude (FIG. 7C).

CA1 neurons [4] = assay: Miniature EPSC (mEPSC) recording in CA1 neurons
Description: A miniature EPSC (mEPSC) was measured at −70 mV with a pipette solution. In this connection, the pipette solution contained 110 mM K-gluconate, 20 mM KCl, 8 mM NaCl, 10 mM HEPES, 0.5 mM QX-314-C1, 4 mM Mg-ATP, 0.3 mM Na-GTP and 0.5 mM EGTA. The solution had pH 7.25 and 290 mOsm/kg. Voluntary action potentials and IPSCs were blocked by TTX (1 μM) and picrotoxin (50 μM), respectively. For mIPSC recording, the K-gluconate in the pipette solution was replaced with the KCl having the same number of moles as the K-gluconate.
Next, the effect of SYR on miniature EPSC (mEPSC) in CA1 neurons was examined.

COc1cc(C2OCC3C(c4cc(OC)c(O)c(OC)c4)OCC23)cc(OC)c1O (centres unmarked) [SYR, syringaresinol]
membrane potential of CA1 neurons (CA1 neurons [1]; SYR 100 μM applied extracellularly): Significant hyperpolarization
resting membrane potential (CA1 neurons [1]; SYR 100 μM in the pipette solution): did not affect resting membrane potential
paired-pulse ratio (PPR) of fEPSP ([2]; 30 μM and 100 μM, interval 100 ms): gradually increased
first and second fEPSPs ([2]; 30 μM): significantly decreased
amplitude of fEPSP during SYR perfusion (1 h) ([2]; 100 μM, 1 h): rapidly decreased and then remained stable
PPR before vs one hour after application, small inter-pulse interval ([2]; 100 μM, interval 200 ms): significant difference in PPR
PPR before vs one hour after application, large inter-pulse interval ([2]; 100 μM, interval 500 ms): no difference in PPR
first and second fEPSPs ([2]; 100 μM): significantly decreased
inhibition at 500 µM ([2]; Mus musculus, 500 μM of SYR, read-out: maximum inhibition of fEPSP): 75.9 ± 1.6%
IC50 ([2]; Mus musculus, SC-CA1 synapse, hippocampal slice, bath perfusion, read-out: IC50 for decrease of slope and amplitude of fEPSP): 90 µM
post-synaptic response (fEPSP) ([2]; high concentrations, >10 μM): decreased rapidly
effect on fEPSP ([2]; low concentrations, 1 to 5 μM): did not affect fEPSP
PPR and fEPSP after washing the SYR with control solution ([2]; washout): slowly recovered to baseline
RRP size [3]: significant decrease
amplitude of first epilepsy pathological excitation wave (first PS) (hippocampal CA1 region): decreased
area of the epilepsy pathological fEPSP (population spike) (hippocampal CA1 region): decreased
epilepsy pathological excitation wave (hippocampal CA1 region): significantly inhibited
slope of fEPSP in epilepsy-induced hippocampal slice (hippocampal CA1 region): rapidly reduced
mEPSC amplitude (CA1 neurons [4]): did not change
mEPSC frequency (CA1 neurons [4]): did not change
